Results published in the NIST ThermoML archive (doi:10.1007/s10765-010-0860-3).

Experiment: xn = mol fraction of the nth substance listed
Conditions: 101 kPa, Liquid; for viscosity: Capillary tube (Ostwald / Ubbelohde) method; for mass density: Pycnometric method

CC1COC(=O)O1 (configuration not stated) [4-methyl-1,3-dioxolan-2-one] + C1COCCO1
Conditions	mass density, 288.15 K [kg/m3]	mass density, 298.15 K [kg/m3]	mass density, 308.15 K [kg/m3]	viscosity, 288.15 K [mPa·s]	viscosity, 298.15 K [mPa·s]	viscosity, 308.15 K [mPa·s]
x1 = 0.0213	1042.6	1031.46	1020.15	1.429	1.181	1.027
x1 = 0.041	1045.89	1034.79	1023.54	1.421	1.177	1.027
x1 = 0.0636	1049.76	1038.7	1027.51	1.413	1.174	1.02
x1 = 0.0823	1053.01	1041.99	1030.85	1.408	1.173	1.026
x1 = 0.0999	1056.12	1045.13	1034.02	1.404	1.172	1.022
x1 = 0.202	1074.8	1064.02	1053.09	1.408	1.184	1.028
x1 = 0.299	1093.28	1082.69	1071.87	1.45	1.22	1.053
x1 = 0.3991	1112.62	1101.92	1091.44	1.534	1.286	1.102
x1 = 0.4991	1131.72	1121.15	1110.7	1.659	1.381	1.171
x1 = 0.5987	1150.06	1139.4	1129.1	1.826	1.508	1.274
x1 = 0.6996	1167.4	1156.75	1146.43	2.039	1.671	1.405
x1 = 0.8049	1183.66	1172.85	1162.59	2.307	1.878	1.571
x1 = 0.9003	1196.16	1185.45	1175.02	2.589	2.101	1.748
x1 = 1	1208.67	1197.58	1187.16	3.086	2.5	2.073

CC1COC(=O)O1 (configuration not stated) [4-methyl-1,3-dioxolan-2-one] + C1CCOC1
Conditions	mass density, 288.15 K [kg/m3]	mass density, 298.15 K [kg/m3]	mass density, 308.15 K [kg/m3]	viscosity, 288.15 K [mPa·s]	viscosity, 298.15 K [mPa·s]	viscosity, 308.15 K [mPa·s]
x1 = 0.0188	901.15	890.25	879.17	0.524	0.47	0.432
x1 = 0.0393	910.03	899.18	888.14	0.542	0.479	0.439
x1 = 0.0603	918.97	908.19	897.18	0.561	0.49	0.448
x1 = 0.077	926	915.27	904.28	0.575	0.5	0.455
x1 = 0.0988	935.05	924.38	913.41	0.594	0.513	0.466
x1 = 0.2117	979.75	969.45	958.45	0.696	0.6	0.541
x1 = 0.3057	1014.39	1004.06	993.26	0.794	0.699	0.629
x1 = 0.4024	1047.72	1037.25	1026.68	0.921	0.831	0.745
x1 = 0.4992	1078.98	1068.45	1057.96	1.088	0.998	0.89
x1 = 0.5997	1109.33	1098.74	1088.29	1.317	1.211	1.072
x1 = 0.7015	1138.16	1127.39	1117.06	1.626	1.473	1.289
x1 = 0.8033	1165.19	1154.55	1144.02	2.03	1.786	1.54
x1 = 0.9064	1190.96	1179.68	1169.74	2.556	2.158	1.83
x1 = 1	1208.67	1197.58	1187.16	3.086	2.5	2.073

CC(=O)CC(C)=O [2,4-pentanedione] + CC1COC(=O)O1
Conditions	mass density, 288.15 K [kg/m3]	mass density, 298.15 K [kg/m3]	mass density, 308.15 K [kg/m3]	viscosity, 288.15 K [mPa·s]	viscosity, 298.15 K [mPa·s]	viscosity, 308.15 K [mPa·s]
x2 = 0	980.34	972.18	963.46	0.741	0.67	0.609
x2 = 0.0212	984.24	975.79	966.83	0.769	0.692	0.627
x2 = 0.0438	988.61	979.89	970.69	0.797	0.714	0.646
x2 = 0.0625	992.42	983.48	974.11	0.821	0.732	0.661
x2 = 0.0827	996.68	987.54	977.99	0.845	0.751	0.677
x2 = 0.1026	1001.03	991.71	982	0.868	0.769	0.693
x2 = 0.201	1024.5	1014.55	1004.29	0.978	0.857	0.766
x2 = 0.2982	1050.05	1039.83	1029.34	1.086	0.944	0.838
x2 = 0.4028	1078.89	1068.64	1058.14	1.215	1.047	0.922
x2 = 0.5	1105.74	1095.61	1085.24	1.359	1.162	1.014
x2 = 0.6016	1132.67	1122.7	1112.52	1.549	1.313	1.133
x2 = 0.6985	1156.08	1146.19	1136.15	1.782	1.495	1.277
x2 = 0.7995	1176.95	1166.95	1156.95	2.093	1.735	1.466
x2 = 0.9016	1193.11	1182.69	1172.51	2.493	2.04	1.706
